Our source for the Ki values is ChEMBL document CHEMBL3638675, “Alkoxy pyrimidine PDE10 inhibitors” (2014).

Molecules are shown by their SMILES. pKi: −log10 of the molar value.

This test has as its target cAMP and cAMP-inhibited cGMP 3',5'-cyclic phosphodiesterase 10A (Homo sapiens, UniProt Q9Y233). Description: Fluorescence Polarization Assay: The activity of the compounds in accordance with the present invention as PDE10 inhibitors may be readily determined without undue experimentation using a fluorescence polarization (FP) methodology that is well known in the art (Huang, W., et al., J. Biomol Screen, 2002, 7: 215). […] In a typical experiment the PDE10 inhibitory activity of the compounds of the present invention was determined in accordance with the following experimental method. PDE10A2 was amplified from human fetal brain cDNA (Clontech, Mountain View, Calif.) using a forward primer corresponding to nucleotides 56-77 of human PDE10A2 (Accession No. AF127480, Genbank Identifier 4894716), containing a Kozak consensus sequence, and a reverse primer corresponding to nucleotides 2406-2413 of human PDE10A2.

cAMP and cAMP-inhibited cGMP 3',5'-cyclic phosphodiesterase 10A, sequence (Q9Y233 whole entry): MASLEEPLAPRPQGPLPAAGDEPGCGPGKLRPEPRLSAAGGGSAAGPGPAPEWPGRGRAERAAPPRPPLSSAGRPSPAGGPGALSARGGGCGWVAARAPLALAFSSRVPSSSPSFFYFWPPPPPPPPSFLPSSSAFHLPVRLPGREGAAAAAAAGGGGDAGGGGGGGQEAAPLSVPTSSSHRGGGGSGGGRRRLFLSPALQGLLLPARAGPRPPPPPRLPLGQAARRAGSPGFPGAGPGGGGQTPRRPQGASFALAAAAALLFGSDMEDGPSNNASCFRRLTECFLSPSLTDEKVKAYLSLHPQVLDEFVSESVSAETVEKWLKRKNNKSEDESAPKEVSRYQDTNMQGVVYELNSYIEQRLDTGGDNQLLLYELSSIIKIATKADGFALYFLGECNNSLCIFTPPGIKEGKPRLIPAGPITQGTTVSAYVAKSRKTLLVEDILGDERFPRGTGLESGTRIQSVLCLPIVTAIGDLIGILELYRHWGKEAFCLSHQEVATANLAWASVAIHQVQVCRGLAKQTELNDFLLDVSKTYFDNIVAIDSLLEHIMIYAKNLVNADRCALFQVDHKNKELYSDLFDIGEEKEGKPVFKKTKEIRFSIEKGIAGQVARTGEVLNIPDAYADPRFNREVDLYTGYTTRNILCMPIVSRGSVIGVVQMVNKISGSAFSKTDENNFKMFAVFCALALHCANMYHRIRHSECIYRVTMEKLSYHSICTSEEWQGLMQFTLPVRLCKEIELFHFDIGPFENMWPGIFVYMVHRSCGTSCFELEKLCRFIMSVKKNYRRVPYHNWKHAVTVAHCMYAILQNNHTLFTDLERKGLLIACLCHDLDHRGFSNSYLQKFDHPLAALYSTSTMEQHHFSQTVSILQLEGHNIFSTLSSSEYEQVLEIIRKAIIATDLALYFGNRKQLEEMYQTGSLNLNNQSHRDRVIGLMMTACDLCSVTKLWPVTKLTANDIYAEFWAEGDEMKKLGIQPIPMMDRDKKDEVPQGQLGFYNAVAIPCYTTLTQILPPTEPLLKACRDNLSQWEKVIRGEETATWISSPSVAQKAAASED

Molecule `Cc1c(Cl)nc(OC[C@@H]2C[C@H]2c2ccc3ncccc3n2)nc1NCc1cnn(C)c1` had a pKi of 10.72. The same measure for `Cc1nc(C)c(CNc2nc(OC[C@@H]3C[C@H]3c3ccc4ccccc4n3)nc(Cl)c2C)s1`: 12.22.

`COc1nc(OC[C@H]2C[C@@H]2c2ccc3ncccc3n2)nc(NCc2cnn(C)c2)c1C` gave a pKi of 9.77.
